Assay results taken from PubChem BioAssay AID1963424 (Molecular Pharmacology Branch, DTP, NCI, 2024).

Tested on: 327498-153-R-J2-PDC complex spheroid growth, % test/control
Assay: Anticancer human tumor 327498-153-R-J2-PDC patient-derived uterine carcinosarcoma cell line growth inhibition [Asc]
Details: for IC50: curve of first compound; for viability, T/C: stronger effect = lower value
In short: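 Tumor cells were grown as multicellular spheroids with stromal HUVEC and mesenchymal stem cells and treated singly or in combination. Concentrations fell in half-log steps from the clinical Cmax, or from 10 microM where none was known.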
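Note: spheroids exposed to compound for 7 days after 3 days of growth.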
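Throughout, for viability, T/C: 100% = DMSO vehicle control wells.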

COc1c(OCCCN2CCOCC2)ccc2c3n(c(=NC(=O)c4cnc(N)nc4)nc12)CCN3 + Cc1c(S(C)(=O)=O)c(-c2cc(F)cc(N3CCN(c4ccc(NS(=O)(=O)c5ccc(NC(CCN6CCC(C(=O)OCCCP(=O)(O)O)CC6)CSc6ccccc6)c(S(=O)(=O)C(F)(F)F)c5)cc4)CC3)c2)c(-c2ccc(Cl)cc2)n1C(C)C
IC50 (second compound 0.1 µM): 104 nM | IC50 (second compound 0.316 µM): 96.5 nM | IC50 (second compound 1 µM): 79.2 nM | IC50 (second compound 3.16 µM): 86.4 nM | IC50 (second compound 10 µM): 168 nM | viability, T/C (second compound 0.1 µM, first compound 0.00316 µM): 81.3% | viability, T/C (second compound 0.1 µM, first compound 0.01 µM): 91.2% | viability, T/C (second compound 0.1 µM, first compound 0.0316 µM): 80.3% | viability, T/C (second compound 0.1 µM, first compound 0.1 µM): 46.8% | viability, T/C (second compound 0.1 µM, first compound 0.316 µM): 24.6% | viability, T/C (second compound 0.1 µM, first compound 1 µM): 5.06% | viability, T/C (second compound 0.316 µM, first compound 0.00316 µM): 91.3% | viability, T/C (second compound 0.316 µM, first compound 0.01 µM): 84.4% | viability, T/C (second compound 0.316 µM, first compound 0.0316 µM): 77.2% | viability, T/C (second compound 0.316 µM, first compound 0.1 µM): 48.7% | viability, T/C (second compound 0.316 µM, first compound 0.316 µM): 18.9% | viability, T/C (second compound 0.316 µM, first compound 1 µM): 4.02% | viability, T/C (second compound 1 µM, first compound 0.00316 µM): 91.1% | viability, T/C (second compound 1 µM, first compound 0.01 µM): 83.6% | viability, T/C (second compound 1 µM, first compound 0.0316 µM): 63.9% | viability, T/C (second compound 1 µM, first compound 0.1 µM): 48.7% | viability, T/C (second compound 1 µM, first compound 0.316 µM): 20.8% | viability, T/C (second compound 1 µM, first compound 1 µM): 3.26% | viability, T/C (second compound 3.16 µM, first compound 0.00316 µM): 91.5% | viability, T/C (second compound 3.16 µM, first compound 0.01 µM): 79.2% | viability, T/C (second compound 3.16 µM, first compound 0.0316 µM): 72.2% | viability, T/C (second compound 3.16 µM, first compound 0.1 µM): 48.9% | viability, T/C (second compound 3.16 µM, first compound 0.316 µM): 16.1% | viability, T/C (second compound 3.16 µM, first compound 1 µM): 2.71% | viability, T/C (second compound 10 µM, first compound 0.00316 µM): 166% | viability, T/C (second compound 10 µM, first compound 0.01 µM): 169% | viability, T/C (second compound 10 µM, first compound 0.0316 µM): 151% | viability, T/C (second compound 10 µM, first compound 0.1 µM): 73% | viability, T/C (second compound 10 µM, first compound 0.316 µM): 24% | viability, T/C (second compound 10 µM, first compound 1 µM): 4.08%
